Laboratory results taken from the NIST ThermoML archive (doi:10.1016/j.jct.2019.05.002).

Assay: xn = mol fraction of the nth substance listed
Conditions: 100 kPa, Liquid; for speed of sound: Frequency=3 MHz, Single path-length method; for mass density: Vibrating tube method

CC(O)CCO (stereo not given) [1,3-butanediol] + CCCC(=O)OCC
Conditions | mass density [kg/m3] | speed of sound [m/s]
298.15 K, x2 = 0 | 1001.87 | 1527.9
298.15 K, x2 = 0.1034 | 988.68 | 1491.1
298.15 K, x2 = 0.203 | 975.97 | 1455.7
298.15 K, x2 = 0.305 | 962.97 | 1419.4
298.15 K, x2 = 0.3835 | 952.95 | 1391.4
298.15 K, x2 = 0.4936 | 938.91 | 1352.2
298.15 K, x2 = 0.5811 | 927.76 | 1321.1
298.15 K, x2 = 0.6878 | 914.14 | 1283.1
298.15 K, x2 = 0.7997 | 899.87 | 1243.3
298.15 K, x2 = 0.8818 | 889.39 | 1214.1
303.15 K, x2 = 0 | 998.41 | 1514
303.15 K, x2 = 0.1034 | 985.01 | 1476.5
303.15 K, x2 = 0.203 | 972.1 | 1440.3
303.15 K, x2 = 0.305 | 958.89 | 1403.3
303.15 K, x2 = 0.3835 | 948.71 | 1374.8
303.15 K, x2 = 0.4936 | 934.45 | 1334.8
303.15 K, x2 = 0.5811 | 923.12 | 1303.1
303.15 K, x2 = 0.6878 | 909.28 | 1264.3
303.15 K, x2 = 0.7997 | 894.79 | 1223.7
303.15 K, x2 = 0.8818 | 884.14 | 1193.9
308.15 K, x2 = 0 | 994.94 | 1500.1
308.15 K, x2 = 0.1034 | 981.34 | 1461.9
308.15 K, x2 = 0.203 | 968.23 | 1425
308.15 K, x2 = 0.305 | 954.82 | 1387.2
308.15 K, x2 = 0.3835 | 944.49 | 1358.2
308.15 K, x2 = 0.4936 | 930.01 | 1317.4
308.15 K, x2 = 0.5811 | 918.51 | 1285.1
308.15 K, x2 = 0.6878 | 904.47 | 1245.5
308.15 K, x2 = 0.7997 | 889.75 | 1204.1
308.15 K, x2 = 0.8818 | 878.94 | 1173.7
313.15 K, x2 = 0 | 991.49 | 1486.2
313.15 K, x2 = 0.1034 | 977.69 | 1447.2
313.15 K, x2 = 0.203 | 964.38 | 1409.6
313.15 K, x2 = 0.305 | 950.77 | 1371.2
313.15 K, x2 = 0.3835 | 940.28 | 1341.5
313.15 K, x2 = 0.4936 | 925.59 | 1300
313.15 K, x2 = 0.5811 | 913.91 | 1267
313.15 K, x2 = 0.6878 | 899.66 | 1226.8
313.15 K, x2 = 0.7997 | 884.72 | 1184.6
313.15 K, x2 = 0.8818 | 873.76 | 1153.6
318.15 K, x2 = 0 | 988.02 | 1472.3
318.15 K, x2 = 0.1034 | 974.01 | 1432.6
318.15 K, x2 = 0.203 | 960.49 | 1394.3
318.15 K, x2 = 0.305 | 946.68 | 1355.1
318.15 K, x2 = 0.3835 | 936.03 | 1324.9
318.15 K, x2 = 0.4936 | 921.1 | 1282.6
318.15 K, x2 = 0.5811 | 909.25 | 1249
318.15 K, x2 = 0.6878 | 894.78 | 1208
318.15 K, x2 = 0.7997 | 879.61 | 1165
318.15 K, x2 = 0.8818 | 868.48 | 1133.4
323.15 K, x2 = 0 | 984.56 | 1458.4
323.15 K, x2 = 0.1034 | 970.34 | 1417.9
323.15 K, x2 = 0.203 | 956.63 | 1378.9
323.15 K, x2 = 0.305 | 942.62 | 1339
323.15 K, x2 = 0.3835 | 931.81 | 1308.3
323.15 K, x2 = 0.4936 | 916.67 | 1265.2
323.15 K, x2 = 0.5811 | 904.65 | 1231
323.15 K, x2 = 0.6878 | 889.97 | 1189.2
323.15 K, x2 = 0.7997 | 874.58 | 1145.4
323.15 K, x2 = 0.8818 | 863.28 | 1113.3

OCCCCO [1,4-butanediol] + CCCC(=O)OCC
Conditions | mass density [kg/m3] | speed of sound [m/s]
298.15 K, x2 = 0 | 1012.8 | 1601.9
298.15 K, x2 = 0.1009 | 998.83 | 1558.5
298.15 K, x2 = 0.1986 | 985.3 | 1516.5
298.15 K, x2 = 0.3254 | 967.74 | 1461.9
298.15 K, x2 = 0.4231 | 954.2 | 1419.9
298.15 K, x2 = 0.5008 | 943.44 | 1386.5
298.15 K, x2 = 0.5895 | 931.16 | 1348.4
298.15 K, x2 = 0.7128 | 914.08 | 1295.3
298.15 K, x2 = 0.8015 | 901.8 | 1257.2
298.15 K, x2 = 0.9105 | 886.7 | 1210.3
303.15 K, x2 = 0 | 1009.77 | 1590.3
303.15 K, x2 = 0.1009 | 995.55 | 1545.9
303.15 K, x2 = 0.1986 | 981.78 | 1503
303.15 K, x2 = 0.3254 | 963.91 | 1447.4
303.15 K, x2 = 0.4231 | 950.15 | 1404.4
303.15 K, x2 = 0.5008 | 939.2 | 1370.3
303.15 K, x2 = 0.5895 | 926.7 | 1331.4
303.15 K, x2 = 0.7128 | 909.32 | 1277.2
303.15 K, x2 = 0.8015 | 896.82 | 1238.3
303.15 K, x2 = 0.9105 | 881.46 | 1190.4
308.15 K, x2 = 0 | 1006.74 | 1578.6
308.15 K, x2 = 0.1009 | 992.28 | 1533.4
308.15 K, x2 = 0.1986 | 978.27 | 1489.5
308.15 K, x2 = 0.3254 | 960.1 | 1432.7
308.15 K, x2 = 0.4231 | 946.09 | 1388.9
308.15 K, x2 = 0.5008 | 934.96 | 1354
308.15 K, x2 = 0.5895 | 922.24 | 1314.2
308.15 K, x2 = 0.7128 | 904.57 | 1258.9
308.15 K, x2 = 0.8015 | 891.85 | 1219.2
308.15 K, x2 = 0.9105 | 876.23 | 1170.3
313.15 K, x2 = 0 | 1003.7 | 1567
313.15 K, x2 = 0.1009 | 988.99 | 1520.7
313.15 K, x2 = 0.1986 | 974.75 | 1476
313.15 K, x2 = 0.3254 | 956.27 | 1417.9
313.15 K, x2 = 0.4231 | 942.03 | 1373.2
313.15 K, x2 = 0.5008 | 930.7 | 1337.6
313.15 K, x2 = 0.5895 | 917.77 | 1297
313.15 K, x2 = 0.7128 | 899.8 | 1240.5
313.15 K, x2 = 0.8015 | 886.87 | 1199.9
313.15 K, x2 = 0.9105 | 870.99 | 1150
318.15 K, x2 = 0 | 1000.67 | 1555.3
318.15 K, x2 = 0.1009 | 985.72 | 1508.1
318.15 K, x2 = 0.1986 | 971.24 | 1462.5
318.15 K, x2 = 0.3254 | 952.45 | 1403.2
318.15 K, x2 = 0.4231 | 937.98 | 1357.6
318.15 K, x2 = 0.5008 | 926.46 | 1321.3
318.15 K, x2 = 0.5895 | 913.32 | 1279.8
318.15 K, x2 = 0.7128 | 895.05 | 1222.2
318.15 K, x2 = 0.8015 | 881.9 | 1180.7
318.15 K, x2 = 0.9105 | 865.75 | 1129.8
323.15 K, x2 = 0 | 997.63 | 1543.7
323.15 K, x2 = 0.1009 | 982.43 | 1495.6
323.15 K, x2 = 0.1986 | 967.72 | 1449
323.15 K, x2 = 0.3254 | 948.62 | 1388.6
323.15 K, x2 = 0.4231 | 933.91 | 1342
323.15 K, x2 = 0.5008 | 922.21 | 1305
323.15 K, x2 = 0.5895 | 908.85 | 1262.7
323.15 K, x2 = 0.7128 | 890.28 | 1204
323.15 K, x2 = 0.8015 | 876.92 | 1161.7
323.15 K, x2 = 0.9105 | 860.51 | 1109.8
